The text below walks through data of patent US20220233529A1, “COMBINATION THERAPY COMPRISING A2A/A2B INHIBITORS, PD-1/PD-L1 INHIBITORS, AND ANTI-CD73 ANTIBODIES” (Incyte Corporation, priority 2020, published 2022).

Read-outs that look alike come from different tables or passages of the source. Some results are limits rather than exact numbers.

The target in one assay is T1, Adenosine A2A Receptor (Homo sapiens, UniProt P29274).
T1 construct: Tag-lite label (own knowledge: SNAP-tag fusion labeled with terbium); purchased CisBio C1TT1A2A
Description: A2A Tag-lite HTRF assay. The class given is binding. Conditions: Tag-lite Adenosine A2A labeled cells; fluorescent antagonist ligand 12.5 nM.

Assay [1] concerns the target T2, human adenosine A2B receptor (Homo sapiens, UniProt P29275).
T2 construct: host or cells: HEK-293 (stably transfected)
T2 sequence (P29275 1-332): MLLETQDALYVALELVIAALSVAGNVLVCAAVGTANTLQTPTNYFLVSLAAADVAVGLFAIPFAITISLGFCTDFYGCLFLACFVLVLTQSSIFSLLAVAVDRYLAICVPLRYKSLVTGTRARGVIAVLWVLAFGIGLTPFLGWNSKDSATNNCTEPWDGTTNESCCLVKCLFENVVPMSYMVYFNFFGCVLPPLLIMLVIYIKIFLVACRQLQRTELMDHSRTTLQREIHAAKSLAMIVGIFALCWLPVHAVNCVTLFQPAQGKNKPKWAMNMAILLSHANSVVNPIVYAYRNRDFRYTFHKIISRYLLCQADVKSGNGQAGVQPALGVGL
Briefly: Adenosine A2B Receptor cyclic AMP GS Assay. Format: cell-based. On the procedure: Stably transfected HEK-293 cells expressing the human adenosine A2B receptor (Perkin Elmer) were maintained in MEM culture medium with 10% FBS and 100 μg/mL Geneticin (Life Technologies). 18 to 24 hours prior to assay, geneticin was removed from culture. The cisbio cAMP-GS Dynamic kit utilizing the FRET (Fluorescence Resonance Energy Transfer) technology was used to measure cAMP accumulation in the cells. Compounds of the present disclosure at an appropriate concentration were mixed with 10000 cells/well in white 96 well half area plates (Perkin Elmer) for 30 min at RT gently shaking. […] Detection reagents, d2-labeled cAMP (acceptor) and anti-cAMP cryptate (donor) were added to each well for 60 min at RT gently shaking.

For assay [2], the system named is human breast adenocarcinoma tumor, MDA-MB-231. Description: Anti-tumor efficacy in humanized murine host carrying MDA-MB-231 tumor. Format: in vivo, human CD34+ reconstituted mice. Conditions: vs Vehicle + IgG isotype, ANTIBODY Y 10 mg/kg i.p. every 5 days, retifanlimab 1 mg/mL i.p. every 5 days, Compound 9 10 mg/kg p.o. b.i.d., dosing day 7-35. On the procedure:
On day 7, and every 3 to 4 days subsequently, tumors were measured by Vernier caliper and tumor volume was calculated by the formula, Volume=[L (long dimension)×W^2 (short dimension)]/2. Based on these measurements, mice were randomized into 8 treatment groups of 10 mice each with an average starting tumor volume of 180 mm^3. The studied agents were formulated and administered as follows: ANTIBODY Y was diluted to a final concentration of 1 mg/mL in phosphate-buffered saline and administered by intraperitoneal (i.p.) injection at 10 mL/kg to mice for a dose of 10 mg/kg, every 5 days. Retifanlimab (Macrogenics) was diluted to 1 mg/mL and dosed i.p., every 5 days. For combination treatments, the two antibodies were co-formulated to a concentration of 1 mg/mL, each. The oral vehicle was 5% N,N-dimethylacetamide in 0.5% methyl-cellulose in 50 mM citrate buffer, pH 3.0 (all reagents obtained from Sigma) and was administered by oral gavage (p.o.) twice daily (b.i.d.).
Dosing began at day 7, and ran for 28 days, through day 35. […]
Tumor Growth Inhibition (TGI), defined as (1-treatment group volume)/control group volume)×100 was analyzed for the whole study on day 47, the last day prior to some animals leaving the study at their endpoint. […]

The mark [3] stands for this setting: HEK-293 cells expressing human A2B, agonist NECA 12 nM, cAMP accumulation, read-out: A2B—cAMP_EC50.

T1 sequence (P29274 whole entry, the tested form may be a part): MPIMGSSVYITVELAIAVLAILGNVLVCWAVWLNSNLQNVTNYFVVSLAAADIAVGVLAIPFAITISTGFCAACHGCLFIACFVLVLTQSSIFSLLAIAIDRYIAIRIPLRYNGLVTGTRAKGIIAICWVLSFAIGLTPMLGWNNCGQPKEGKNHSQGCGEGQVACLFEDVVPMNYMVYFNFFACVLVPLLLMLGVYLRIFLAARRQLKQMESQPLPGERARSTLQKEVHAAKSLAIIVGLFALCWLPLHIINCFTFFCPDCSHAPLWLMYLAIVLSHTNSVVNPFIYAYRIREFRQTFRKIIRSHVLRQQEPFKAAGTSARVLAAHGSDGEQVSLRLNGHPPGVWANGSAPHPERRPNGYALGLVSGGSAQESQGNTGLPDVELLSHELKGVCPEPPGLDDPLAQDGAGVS
Description for Adenosine A2A Receptor: Test compounds were first serially diluted in DMSO and 100 nL added to the plate wells before the addition of other reaction components. The final concentration of DMSO was 1%. Tag-lite® Adenosine A2A labeled cells (CisBio C1TT1A2A) were diluted 1:5 into Tag-lite buffer (CisBio LABMED) and spun 1200 g for 5 mins.

`N#Cc1cccc(-c2nc(N)n3nc(C(O)c4c(F)cccc4F)nc3c2-c2ccncn2)c1` (single isomer, unassigned) [Compound 2, 3-(5-Amino-2-((2,6-difluorophenyl)(hydroxy)methyl)-8-(pyrimidin-4-yl)-[1,2,4]triazolo[1,5-c]pyrimidin-7-yl)benzonitrile] displayed an inhibition constant (Ki) at Adenosine A2A Receptor of under 10 nM.

With `CN1CCC(NCc2cccc(F)c2C(O)c2nc3cc(-c4cccc(C#N)c4F)nc(N)n3n2)C1=O` (single isomer, unassigned) [Compound 8, 3-(5-Amino-2-((2-fluoro-6-(((1-methyl-2-oxopyrrolidin-3-yl)amino)methyl)phenyl)(hydroxy)methyl)-[1,2,4]triazolo[1,5-c]pyrimidin-7-yl)-2-fluorobenzonitrile], the Ki at Adenosine A2A Receptor is under 10 nM.

For the compound `Cc1ncoc1-c1c(-c2cccc(C#N)c2)nc(N)c2nc(C(N)c3c(F)cccc3F)nn12` (single isomer, unassigned) [Compound 11, 3-(8-amino-2-(amino(2,6-difluorophenyl)methyl)-5-(4-methyloxazol-5-yl)-[1,2,4]triazolo[1,5-a]pyrazin-6-yl)benzonitrile], the Ki on Adenosine A2A Receptor is under 10 nM. In addition, the EC50 in assay [1] was under 10 nM.

In the case of `N#Cc1cccc(-c2nc(N)n3nc(Cc4ccccn4)nc3c2-c2ccncn2)c1` [Compound 1, 3-(5-Amino-2-(pyridin-2-ylmethyl)-8-(pyrimidin-4-yl)-[1,2,4]triazolo[1,5-c]pyrimidin-7-yl)benzonitrile], the Ki at Adenosine A2A Receptor was under 10 nM.

On to `Cc1cccnc1COc1nc2c(-c3ccncn3)c(-c3cccc(C#N)c3)nc(N)n2n1` [Compound 4, 3-(5-Amino-2-((3-methylpyridin-2-yl)methoxy)-8-(pyrimidin-4-yl)-[1,2,4]triazolo[1,5-c]pyrimidin-7-yl)benzonitrile], for which the Ki at Adenosine A2A Receptor was under 10 nM.

For the compound `N#Cc1cccc(-c2cc3nc(C(O)c4ccccc4)nn3c(N)n2)c1` (stereo not shown) [Compound 5, 3-(5-Amino-2-(hydroxy(phenyl)methyl)-[1,2,4]triazolo[1,5-c]pyrimidin-7-yl)benzonitrile], the inhibition constant (Ki) on Adenosine A2A Receptor is under 10 nM. Moreover, the EC50 in assay [1] (setting [3]) was under 10 nM.

Compound `N#Cc1cccc(-c2cc3nc(C(O)c4c(F)cccc4F)nn3c(N)n2)c1F` (stereo not shown) [Compound 6, 3-(5-Amino-2-((2,6-difluorophenyl)(hydroxy)methyl)-[1,2,4]triazolo[1,5-c]pyrimidin-7-yl)-2-fluorobenzonitrile] came in with an inhibition constant Ki on Adenosine A2A Receptor of under 10 nM. The EC50 in assay [1] (setting [3]) is under 10 nM.

Regarding `N#Cc1cccc(-c2nc(N)n3nc(C(O)c4c(F)cccc4F)nc3c2C#N)c1F` (stereo not shown) [Compound 7, 5-Amino-7-(3-cyano-2-fluorophenyl)-2-((2,6-difluorophenyl)(hydroxy)methyl)-[1,2,4]triazolo[1,5-c]pyrimidine-8-carbonitrile], the inhibition constant (Ki) at Adenosine A2A Receptor was under 10 nM. For the same compound, the EC50 in assay [1] (setting [3]) is under 10 nM.

As to `Cn1nc(-c2c(-c3cccc(C#N)c3)nc(N)c3nc(Cc4ccccn4)nn23)ccc1=O` [Compound 9, 3-(8-Amino-5-(1-methyl-6-oxo-1,6-dihydropyridazin-3-yl)-2-(pyridin-2-ylmethyl)-[1,2,4]triazolo[1,5-a]pyrazin-6-yl)benzonitrile], the “Percent TGI (Day 47 Tumor Growth Inhibition)” value in assay [2] turned out to be 18.42%.

On to `N#Cc1cccc(-c2nc(N)c3nn(Cc4ccccn4)nc3c2-c2ccncn2)c1` [Compound 13, 3-(4-amino-2-(pyridin-2-ylmethyl)-7-(pyrimidin-4-yl)-2H-[1,2,3]triazolo[4,5-c]pyridin-6-yl)benzonitrile], for which the Ki at Adenosine A2A Receptor is under 10 nM.

Compound `N#Cc1cccc(-c2nc(N)c3nn(Cc4ncccc4F)nc3c2-c2ccncn2)c1` [Compound 14, 3-(4-amino-2-((3-fluoropyridin-2-yl)methyl)-7-(pyrimidin-4-yl)-2H-[1,2,3]triazolo[4,5-c]pyridin-6-yl)benzonitrile] returned a Ki on Adenosine A2A Receptor of under 10 nM.

For the compound `N#Cc1cccc(-c2nc(N)c3nn(Cc4ncccc4F)nc3c2-c2ccncc2)c1` [Compound 15, 3-(4-amino-2-((3-fluoropyridin-2-yl)methyl)-7-(pyridin-4-yl)-2H-[1,2,3]triazolo[4,5-c]pyridin-6-yl)benzonitrile], the Ki on Adenosine A2A Receptor was under 10 nM.

As to `Cn1nccc1-c1c(-c2cccc(C#N)c2F)nc(N)c2nn(Cc3ccccn3)nc12` [Compound 16, 3-(4-amino-7-(1-methyl-1H-pyrazol-5-yl)-2-(pyridin-2-ylmethyl)-2H-[1,2,3]triazolo[4,5-c]pyridin-6-yl)-2-fluorobenzonitrile], on Adenosine A2A Receptor, the Ki is under 10 nM.

`CCCCCn1c2cc(-c3cnn(Cc4cncc(Cl)c4)c3)[nH]c2c(=O)n2c(C)nnc12` [Compound 17, 7-(1-((5-Chloropyridin-3-yl)methyl)-1H-pyrazol-4-yl)-3-methyl-9-pentyl-6,9-dihydro-5H-pyrrolo[3,2-d][1,2,4]triazolo[4,3-a]pyrimidin-5-one] had a Ki at Adenosine A2A Receptor of under 10 nM.

Compound `CCCCCn1c2cc(-c3cnn(Cc4cncc(C)c4)c3)[nH]c2c(=O)n2c(C)nnc12` [Compound 18, 3-Methyl-7-(1-((5-methylpyridin-3-yl)methyl)-1H-pyrazol-4-yl)-9-pentyl-6,9-dihydro-5H-pyrrolo[3,2-d][1,2,4]triazolo[4,3-a]pyrimidin-5-one] came in with a Ki at Adenosine A2A Receptor of under 10 nM.

In turn, `CCCCCn1c2cc(-c3cnn(Cc4cnc5ccsc5c4)c3)[nH]c2c(=O)n2c(C)nnc12` [Compound 19, 3-Methyl-9-pentyl-7-(1-(thieno[3,2-b]pyridin-6-ylmethyl)-1H-pyrazol-4-yl)-6,9-dihydro-5H-pyrrolo[3,2-d][1,2,4]triazolo[4,3-a]pyrimidin-5-one] came in with a Ki on Adenosine A2A Receptor of under 10 nM.

The compound `CCCCCn1c2cc(-c3cnn(Cc4ccc5c(c4)CCN(C(=O)CN(C)C)C5)c3)[nH]c2c(=O)n2c(C)nnc12` [Compound 20, 7-(1-((2-(2-(Dimethylamino)acetyl)-1,2,3,4-tetrahydroisoquinolin-6-yl)methyl)-1H-pyrazol-4-yl)-3-methyl-9-pentyl-6,9-dihydro-5H-pyrrolo[3,2-d][1,2,4]triazolo[4,3-a]pyrimidin-5-one] showed a Ki at Adenosine A2A Receptor of under 10 nM.

Consider “retifanlimab: humanized IgG4 monoclonal antibody that binds to human PD-1; heavy chain SEQ ID NO:2, light chain SEQ ID NO:3”, for which, in assay [2], the “Percent TGI (Day 47 Tumor Growth Inhibition)” value was 9.57%.
